From ChEMBL document CHEMBL1126345, “Synthesis of biological evaluation of 4-deshydroxy-4-methyl etoposide and teniposide analogs” (Bioorg Med Chem Lett, 1992)
Converted amounts (≈) assume the structure as drawn. The source made the active and inactive calls. The rule behind the calls is not given here.

Tests used:
[1] = molecular target: DNA topoisomerase II (Homo sapiens) (UniProt P11388+Q02880); assay: Double strand DNA breakage reflecting stabilization of DNA topoisomerase II intermediate by the compound expressed in terms of ng of DNA/unit of enzyme/mM of drug
P388 [2] = assay: In vivo antitumor activity against Murine P388 murine leukemia cell line up to a conc of 100 mg/kg; IA - Totally inactive; format: functional, organism-based; set-up: dose 100 mg/kg; conditions: Mus musculus
P388 [3] = assay: In vivo antitumor activity against Murine P388 murine leukemia cell line up to a conc of 100 mg/kg; A - Active; format: functional, organism-based; set-up: dose 100 mg/kg; conditions: Mus musculus
HCT cell line = assay: In vitro inhibition of compound against HCT cell lines was determined after 72 hr of administration of the dose; format: functional, cell-based; conditions: Homo sapiens
HCT-116 = assay: In vitro inhibition of compound against HCT/VP35 cell lines was determined after 72 hr of administration of the dose; format: functional, cell-based; conditions: Homo sapiens, HCT-116, 72 h
[4] = Resistance ratio was determined as the ratio of resistance to cytotoxicity against human colon tumor (HCT116) to that of (HCT/VP35) cells grown in culture; format: functional

Row | Structure (SMILES) | DSB [1] | Activity (P388 [2]) | also measured
1 | COc1cc([C@@H]2c3cc4c(cc3[C@@H](O[C@@H]3O[C@@H]5CO[C@@H](c6cccs6)O[C@H]5[C@H](O)[C@H]3O)[C@H]3COC(=O)[C@H]23)OCO4)cc(OC)c1O | 346 | – | –
2 | C=CCc1c(OC)cc([C@@H]2c3cc4c(cc3[C@@H](O[C@@H]3O[C@@H]5CO[C@@H](C)O[C@H]5[C@H](O)[C@H]3O)[C@H]3COC(=O)[C@H]23)OCO4)cc1OC | 17 | inactive | –
3 | COc1cc([C@@H]2c3cc4c(cc3[C@@H](O[C@@H]3O[C@@H]5CO[C@@H](C)O[C@H]5[C@H](O)[C@H]3O)[C@H]3COC(=O)[C@H]23)OCO4)cc(OC)c1O | 305 | – | –
4 | C=Cc1c(OC)cc([C@@H]2c3cc4c(cc3[C@@H](O[C@@H]3O[C@@H]5CO[C@@H](C)O[C@H]5[C@H](O)[C@H]3O)[C@H]3COC(=O)[C@H]23)OCO4)cc1OC | 17 | inactive | –
5 | COc1cc([C@@H]2c3cc4c(cc3[C@@H](O[C@@H]3O[C@@H]5CO[C@@H](C)O[C@H]5[C@H](O)[C@H]3O)[C@H]3COC(=O)[C@H]23)OCO4)cc(OC)c1C | 26 | – | Activity (P388 [3]): Active; IC50 (HCT cell line): 5.7 µg/mL (≈ 9.72 µM); IC50 (HCT-116): 5.7 µg/mL (≈ 9.72 µM)
6 | COc1cc(OC)cc([C@@H]2c3cc4c(cc3[C@@H](O[C@@H]3O[C@@H]5CO[C@@H](C)O[C@H]5[C@H](O)[C@H]3O)[C@H]3COC(=O)[C@H]23)OCO4)c1 | 27 | – | Resistance ratio [4]: 0.5
7 | COc1cc([C@@H]2c3cc4c(cc3[C@@H](O[C@@H]3O[C@@H]5CO[C@@H](c6cccs6)O[C@H]5[C@H](O)[C@H]3O)[C@H]3COC(=O)[C@H]23)OCO4)cc(OC)c1C | 49 | inactive | –
8 | C=CCc1c(OC)cc([C@@H]2c3cc4c(cc3[C@@H](O[C@@H]3O[C@@H]5CO[C@@H](c6cccs6)O[C@H]5[C@H](O)[C@H]3O)[C@H]3COC(=O)[C@H]23)OCO4)cc1OC | 42 | – | –
